From US5493007A, “Platelet aggregation inhibitors having high specificity for GPIIBIIIA” (Genentech, Inc., priority 1994, dated 1996)
Where a SMILES comes first, the peptide text is derived from it. Bridges are numbered along the chain shown (N, C = ends). [ ]: non-standard residue; d: D form. The star is where a group is joined. Pen = CC(C)(S)[C@H](N)C(=O)O; dOrn = NCCC[C@@H](N)C(=O)O; Orn = NCCC[C@H](N)C(=O)O; NH(CH2)4NH2 = NCCCCN*; Ava = NCCCCC(=O)O

Experiments:
GP IIb IIIa = GP IIb IIIa (Homo sapiens, UniProt P05106+P08514); experiment: Fibrinogen-GP IIb IIIa Receptor ELISA Binding Assay; set-up: from tissue; host or cells: outdated human platelets; conditions: purified human platelet GP IIb IIIa, fibrinogen-coated plates; read-out: ELISA IC50 Fibrinogen GPIIb IIIa
Sequence of GP IIb IIIa (P08514 32-887 limits assumed): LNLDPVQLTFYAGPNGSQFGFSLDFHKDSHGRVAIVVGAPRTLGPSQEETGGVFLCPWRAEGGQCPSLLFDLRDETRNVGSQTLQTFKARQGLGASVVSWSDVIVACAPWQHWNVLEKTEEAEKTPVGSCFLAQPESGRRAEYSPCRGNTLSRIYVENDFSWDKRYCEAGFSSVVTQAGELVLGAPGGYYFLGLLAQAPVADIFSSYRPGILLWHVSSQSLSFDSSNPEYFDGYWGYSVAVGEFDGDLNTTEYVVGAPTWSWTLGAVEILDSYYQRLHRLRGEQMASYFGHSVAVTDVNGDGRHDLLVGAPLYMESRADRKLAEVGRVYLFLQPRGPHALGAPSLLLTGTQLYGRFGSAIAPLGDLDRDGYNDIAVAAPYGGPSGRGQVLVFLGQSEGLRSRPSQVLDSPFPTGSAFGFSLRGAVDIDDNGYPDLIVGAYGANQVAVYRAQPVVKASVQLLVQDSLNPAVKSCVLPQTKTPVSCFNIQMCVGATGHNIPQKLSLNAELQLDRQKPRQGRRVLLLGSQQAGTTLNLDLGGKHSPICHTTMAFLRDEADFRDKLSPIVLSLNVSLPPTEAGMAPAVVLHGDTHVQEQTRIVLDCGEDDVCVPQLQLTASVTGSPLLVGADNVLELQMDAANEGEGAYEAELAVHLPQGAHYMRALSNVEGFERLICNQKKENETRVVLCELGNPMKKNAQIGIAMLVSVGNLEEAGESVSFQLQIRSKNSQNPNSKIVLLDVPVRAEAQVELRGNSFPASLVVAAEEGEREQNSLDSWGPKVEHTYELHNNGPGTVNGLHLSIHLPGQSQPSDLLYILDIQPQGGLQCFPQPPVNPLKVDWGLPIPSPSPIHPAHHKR
Sequence of GP IIb IIIa (P08514 891-1039 partner limits assumed): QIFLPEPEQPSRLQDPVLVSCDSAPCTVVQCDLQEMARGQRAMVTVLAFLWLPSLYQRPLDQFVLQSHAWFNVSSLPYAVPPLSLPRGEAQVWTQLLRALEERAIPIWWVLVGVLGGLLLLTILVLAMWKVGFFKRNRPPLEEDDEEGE
Sequence of GP IIb IIIa (P05106 27-788): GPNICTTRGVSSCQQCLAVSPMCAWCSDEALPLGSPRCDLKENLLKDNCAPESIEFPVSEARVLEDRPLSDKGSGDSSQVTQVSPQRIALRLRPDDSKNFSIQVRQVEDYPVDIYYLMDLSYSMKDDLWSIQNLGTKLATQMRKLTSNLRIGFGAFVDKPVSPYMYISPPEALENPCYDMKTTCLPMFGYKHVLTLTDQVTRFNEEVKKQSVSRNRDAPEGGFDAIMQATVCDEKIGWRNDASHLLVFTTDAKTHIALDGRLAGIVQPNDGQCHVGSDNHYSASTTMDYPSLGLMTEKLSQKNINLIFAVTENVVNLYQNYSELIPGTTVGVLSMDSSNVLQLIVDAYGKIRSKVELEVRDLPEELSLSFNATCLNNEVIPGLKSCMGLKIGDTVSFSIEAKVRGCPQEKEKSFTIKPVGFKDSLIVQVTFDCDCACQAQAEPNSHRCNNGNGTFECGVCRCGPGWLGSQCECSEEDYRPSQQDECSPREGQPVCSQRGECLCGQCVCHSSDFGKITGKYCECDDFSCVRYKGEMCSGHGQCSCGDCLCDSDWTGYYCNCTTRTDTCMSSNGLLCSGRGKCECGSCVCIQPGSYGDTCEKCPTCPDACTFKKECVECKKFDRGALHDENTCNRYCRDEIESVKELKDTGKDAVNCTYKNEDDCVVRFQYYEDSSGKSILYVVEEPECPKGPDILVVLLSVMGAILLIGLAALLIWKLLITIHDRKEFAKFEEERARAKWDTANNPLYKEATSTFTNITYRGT
Protocol: The method used is essentially that described in Nachman and Leung (J. Clin. Invest., 69:263-269 [1982]). The GP IIb IIIa is essentially purified as described in Fitzgerald et al., (Anal. Biochem. 151:169-177 [1985]).
Outdated human platelets are washed 3 times with 10 mM tris-HCl, 150 mM NaCl (TBS), 1 mM EDTA, pH 7.5, and centrifuged at 2000×g to pellet cells. Cells are lysed in 5 pellet volumes of TBS, 1% Triton X-100, 1 mM Ca2 Cl2, and followed by centrifugation at 30,000×g. The supernatant fraction is collected and the supernatant is loaded onto a concanavalin-A column, previously equilibrated in TBS, 1 mM Ca2 Cl2, 0.1% Triton, 0.05% NaN3 and eluted with 0.2M α-methylmannoside. Fractions are pooled and loaded onto a heparin-agarose column. The flowthrough is collected and concentration on an Amicon YM 30 filter to a volume of approximately 5-10 mi. The concentrate is then applied to an S-300 column (500 ml) and 6 ml fractions are collected. The GP IIb IlIa containing fractions are collected, pooled, and stored at -80° C.
The purification of fibrinogen is conducted essentially as described by Lipinska et al., (J. Lab. Clin. Med. 507, [1974]). Briefly, a 0.3% w/v solution of human fibrinogen (Kabi #5302) is dissolved in 150 mM NaCl. Saturated (NH4)2 SO4 is added dropwise with stirring to the fibrinogen solution to obtain about 16% saturation. The precipitate is spun down in appropriate size bottles at 2000×g. The supernatant is decanted and the precipitate resuspended in 150 mM NaCl (approximately 50% of the original volume). NH4 SO4 is again added dropwise to obtain 16% saturation. The suspension is spun down and the precipitate is resuspended in Tris-saline in a minimal volume (approximately 5% of the original volume). Any remaining insoluble material is spun down at 2000 rpm in a Sorval type centrifuge and the fibrinogen supernatant is decanted and dialyzed overnight at 4° C. against Tris-saline. Characterization of the fibrinogen is by the Bradford protein assay, SDS-PAGE, and/or Western blotting using well known standard procedures.
Briefly, 96 well plates are coated (Type Nunc 1 Maxisorp™) with 10 μg/ml purified fibrinogen (100 μl/well), and allowed to stand overnight at 4° C. The plates are washed three times with PBS Tween (0.137M NaCl, 0.003M KCl, 0.008M Na2 HPO4, 0.001M KH2 PO4, pH 7.4 at room temperature, 0.05% Tween-20) and blocked for 1 to 2 hours at room temperature with 200 μl/well TNCNT (which is 0.5% BSA, 20mM Tris, pH 7.5 at room temperature, 120 mM NaCl, 0.2% NAN3, 2mM CaCl2, 0.05% Tween 20, 0.5% BSA [Calbiochem RIA grade or better]) on a plate shaker. The plates are again washed three times with PBS/Tween and then 50 μl of sample in TNCNT is added. The mixture is incubated for 15 minutes at room temperature on a plate shaker. The stock solution of purified GP IIb IIIa receptor from human platelets, (0.4-1.0 mg/ml GP IIb IIIa in 0.1% Triton X-100, 1 mM CaCl2, 20 mM Tris, 150 mM NaCl, 0.05% NaN3 in 0.3M N-acetyl glucosamine pH 7.5, stored at -70° C.), is reconstituted to about 40 μg/ml in TNCNT. Fifty μl of this diluted GP IIb IIIa is then added to each well and incubated on a plate shaker at room temperature. After one hour, the plates are washed four times with PBS/Tween and 100 μl of a polyclonal or monoclonal antibody specific for GP IIIa such as AP3 (1 μg/ml) (See e.g. Newman et al., Blood, 65:227-232 [1985]) in ELISA buffer (PBS, 0.5% BSA, 0.05% Tween 20, 0.01% Thimerasol) is added. After a one hour incubation at room temperature on a plate shaker, the samples are washed 4 times with PBS/Tween. One hundred μl of GAM-HRP (horse radish peroxidase conjugate of goat anti-mouse IgG [Pel-Freeze Cat. 715305-1] dissolved in ELISA buffer) previously diluted to 1:10,000 is then added and the samples are incubated 1 hour at room temperature on a plate shaker. […]

Fibronectin Receptor = Fibronectin Receptor (Homo sapiens, UniProt P05556+P08648); experiment: Human Fibronectin-Fibronectin Receptor ELISA Assay; type: binding; set-up: octylglucoside (OG) extracted human placenta; from tissue; host or cells: human placenta; conditions: human placenta fibronectin receptor, fibronectin-coated plates; read-out: ELISA IC50 Fibronectin FnR
Sequence of Fibronectin Receptor (P08648 42-894 limits assumed): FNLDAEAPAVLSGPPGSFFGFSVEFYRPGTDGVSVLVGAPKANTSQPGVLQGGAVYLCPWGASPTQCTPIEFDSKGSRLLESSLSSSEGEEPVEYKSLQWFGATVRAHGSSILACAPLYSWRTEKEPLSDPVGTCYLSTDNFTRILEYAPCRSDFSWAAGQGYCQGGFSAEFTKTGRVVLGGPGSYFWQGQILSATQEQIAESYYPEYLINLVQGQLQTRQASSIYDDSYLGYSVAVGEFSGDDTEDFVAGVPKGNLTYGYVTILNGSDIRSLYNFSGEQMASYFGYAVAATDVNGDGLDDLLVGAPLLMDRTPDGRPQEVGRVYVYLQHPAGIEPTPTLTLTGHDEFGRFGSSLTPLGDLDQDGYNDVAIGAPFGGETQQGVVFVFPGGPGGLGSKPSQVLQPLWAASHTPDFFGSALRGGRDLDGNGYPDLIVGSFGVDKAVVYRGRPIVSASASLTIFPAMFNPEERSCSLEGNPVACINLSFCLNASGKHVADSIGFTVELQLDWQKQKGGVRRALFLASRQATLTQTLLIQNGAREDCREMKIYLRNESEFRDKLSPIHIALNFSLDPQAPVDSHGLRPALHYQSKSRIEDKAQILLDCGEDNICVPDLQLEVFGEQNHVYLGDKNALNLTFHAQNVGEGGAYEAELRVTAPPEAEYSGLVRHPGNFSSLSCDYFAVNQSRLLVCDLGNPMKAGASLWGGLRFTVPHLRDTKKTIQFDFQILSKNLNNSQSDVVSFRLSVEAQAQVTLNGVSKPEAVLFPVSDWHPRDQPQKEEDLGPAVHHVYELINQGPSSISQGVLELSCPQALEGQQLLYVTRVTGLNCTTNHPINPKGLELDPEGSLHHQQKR
Sequence of Fibronectin Receptor (P08648 895-1049 partner limits assumed): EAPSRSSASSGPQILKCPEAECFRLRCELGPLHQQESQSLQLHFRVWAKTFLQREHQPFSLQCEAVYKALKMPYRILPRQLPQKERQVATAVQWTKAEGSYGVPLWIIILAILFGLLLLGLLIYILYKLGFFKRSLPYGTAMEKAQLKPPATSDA
Sequence of Fibronectin Receptor (P05556 21-798): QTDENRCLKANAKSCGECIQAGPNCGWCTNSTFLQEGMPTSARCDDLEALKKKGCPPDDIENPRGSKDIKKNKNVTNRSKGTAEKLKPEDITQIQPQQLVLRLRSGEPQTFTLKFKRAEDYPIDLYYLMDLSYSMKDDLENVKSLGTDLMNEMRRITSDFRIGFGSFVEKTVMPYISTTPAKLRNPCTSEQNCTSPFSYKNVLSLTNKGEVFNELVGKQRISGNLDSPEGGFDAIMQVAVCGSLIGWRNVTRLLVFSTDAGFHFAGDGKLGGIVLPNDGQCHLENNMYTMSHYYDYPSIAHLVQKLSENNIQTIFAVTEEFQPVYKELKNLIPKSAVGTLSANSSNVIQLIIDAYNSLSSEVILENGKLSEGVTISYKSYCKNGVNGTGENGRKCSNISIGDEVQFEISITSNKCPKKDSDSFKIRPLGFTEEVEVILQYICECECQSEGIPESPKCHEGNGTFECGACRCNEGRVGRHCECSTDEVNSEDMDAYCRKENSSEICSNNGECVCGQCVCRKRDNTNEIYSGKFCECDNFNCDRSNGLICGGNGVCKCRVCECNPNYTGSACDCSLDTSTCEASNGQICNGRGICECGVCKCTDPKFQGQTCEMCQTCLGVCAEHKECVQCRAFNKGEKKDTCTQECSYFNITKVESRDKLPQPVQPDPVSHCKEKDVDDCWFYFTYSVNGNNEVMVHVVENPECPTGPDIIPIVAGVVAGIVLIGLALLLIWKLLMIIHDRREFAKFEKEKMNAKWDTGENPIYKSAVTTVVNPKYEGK
Protocol: Fibronectin receptor is purified according to the procedures of Pytela et al., (Methods Enzymol. 144:475 […]). Briefly, fibronectin receptor is purified employing an Arg-Gly-Asp affinity chromatography from (100 mM) octylglucoside (OG) extracted human placenta. The OG extract is filtered over Sepharose 6B GRGDSPK column. The column is washed three times with three column volumes of Tris-buffered saline (TBS) TBS, 1 mM CaCl2, and 25 mM OG. The receptor is eluted with TBS, 20 mM EDTA, and 25 mM Octyl thioglucoside, and is stored in 1 mM CaCl2, 1 mM MgCl2, at -80° C.
Microtiter plates are coated with 110 μl human fibronectin (at 2 μg/ml) in TBS. Plates are washed three times with TBS containing 0.05% Tween 20. Test inhibitors are then added after washing in 10 microliter aliquots. The fibronectin receptor is added in 2-fold serial dilutions with TBS containing 20 mM octyl glucoside and 2 mM MnCl2. Plates are incubated three hours at room temperature, and washed with 200 μl TBS-Tween 20 buffer. 100 μl of affinity-purffied rabbit anti-human fibronectin receptor antibody is added to the wells and the plates are incubated two hours, washed twice with TBS-Tween and once with distilled water. Affinity-purified goat anti-rabbit IgG conjugated to horseradish peroxidase (100 μl) is added to each well followed by incubation for 60 minutes at room temperature. Plates are again washed twice with TBS-Tween and distilled water. 100 μl of substrate mixture (10 mg o-phenylenediamine in 25 ml 0.1M citrate-phosphate buffer, pH 5.0 6 μ30% H2 O2) is added to the plates and allowed to develop. The development process is stopped by adding 50 μl of 4N H2 SO4 to each well and read at […].

Row | Compound | IC50 (GP IIb IIIa) [nM] | IC50 (Fibronectin Receptor) [nM]
1 | N=C(N)NCCC[C@@H]1NC(=O)[C@@H](Cc2ccc(O)cc2)NC(=O)C(CCCCN)SC[C@@H](C(=O)O)NC(=O)[C@H](CC(=O)O)NC(=O)CNC1=O (single isomer, unassigned) [9/10, cyclo-S-2-L-(6-aminocaproyl)-Lys--dTyr--Arg--Gly--Asp--Cys--OH] | 5.3 | 2
2 | N=C(N)NCCC[C@@H]1NC(=O)[C@@H](Cc2ccc(O)cc2)NC(=O)C(CCCCN)SC[C@@H](C(=O)O)NC(=O)[C@H](CC(=O)O)NC(=O)CNC1=O (single isomer, unassigned) [9/11, cyclo-S-2-L-(6-aminocaproyl)-Lys--dTyr--Arg--Gly--Asp--Cys--OH] | 14.3 | 160
3 | N=C(N)NCCC[C@H](NC(=O)[C@@H]1CSCC(=O)N[C@H](Cc2ccc(O)cc2)C(=O)N[C@@H](CCCNC(=N)N)C(=O)NCC(=O)N[C@@H](CC(=O)O)C(=O)N1)C(N)=O [7/1, cyclo-S-acetyl-dTyr--Arg--Gly--Asp--Cys--Arg--NH2] ({CH2CO}-[dY]RGDCR-NH2; thioether N-5) | 10 | 57
4 | N=C(N)NCCC[C@@H]1NC(=O)[C@@H](Cc2ccc(O)cc2)NC(=O)CSC[C@@H](C(=O)N[C@H](CCCNC(=N)N)C(N)=O)NC(=O)[C@H](CC(=O)O)NC(=O)CNC1=O [7/2, cyclo-S-acetyl-dTyr--Arg--Gly--Asp--Cys--dArg--NH2] ({CH2CO}-[dY]RGDC[dR]-NH2; thioether N-5) | 13.5 | 42
5 | N=C(N)NCCC[C@@H]1NC(=O)[C@@H](Cc2ccc(O)cc2)NC(=O)CSC[C@@H](C(=O)N[C@@H](CCCCN)C(N)=O)NC(=O)[C@H](CC(=O)O)NC(=O)CNC1=O [7/3, cyclo-S-acetyl-dTyr--Arg--Gly--Asp--Cys--Lys--NH2] ({CH2CO}-[dY]RGDCK-NH2; thioether N-5) | 17 | 201
6 | N=C(N)NCCC[C@@H]1NC(=O)[C@@H](Cc2ccc(O)cc2)NC(=O)CSC[C@@H](C(=O)N[C@H](CCCCN)C(N)=O)NC(=O)[C@H](CC(=O)O)NC(=O)CNC1=O [7/4, cyclo-S-acetyl-dTyr--Arg--Gly--Asp--Cys--dLys--NH2] ({CH2CO}-[dY]RGDC[dK]-NH2; thioether N-5) | 8.3 | 66
7 | N=C(N)NCCC[C@@H]1NC(=O)[C@@H](Cc2ccc(O)cc2)NC(=O)CSC[C@@H](C(=O)N[C@@H](CCCN)C(N)=O)NC(=O)[C@H](CC(=O)O)NC(=O)CNC1=O [7/5, cyclo-S-acetyl-dTyr--Arg--Gly--Asp--Cys--Orn--NH2] ({CH2CO}-[dY]RGDC[Orn]-NH2; thioether N-5) | 11 | 63
8 | N=C(N)NCCC[C@@H]1NC(=O)[C@@H](Cc2ccc(O)cc2)NC(=O)CSC[C@@H](C(=O)N[C@H](CCCN)C(N)=O)NC(=O)[C@H](CC(=O)O)NC(=O)CNC1=O [7/6, cyclo-S-acetyl-dTyr--Arg--Gly--Asp--Cys--dOrn--NH2] ({CH2CO}-[dY]RGDC[dOrn]-NH2; thioether N-5) | 10.5 | 161
9 | N=C(N)NCCC[C@H](NC(=O)[C@H](Cc1ccc(O)cc1)NC(=O)[C@@H]1CSCC(=O)N[C@H](Cc2ccc(O)cc2)C(=O)N[C@@H](CCCNC(=N)N)C(=O)NCC(=O)N[C@@H](CC(=O)O)C(=O)N1)C(N)=O [7/7, cyclo-S-acetyl-dTyr--Arg--Gly--Asp--Cys--Tyr--Arg--NH2] ({CH2CO}-[dY]RGDCYR-NH2; thioether N-5) | 8.9 | 27
10 | CC1(C)SCC(=O)N[C@H](Cc2ccc(O)cc2)C(=O)N[C@@H](CCCCN)C(=O)NCC(=O)N[C@@H](CC(=O)O)C(=O)N[C@@H]1C(=O)N[C@@H](CCCNC(=N)N)C(N)=O [7/16, cyclo-S-acetyl-dTyr--Lys--Gly--Asp--Pen--Arg--NH2] ({CH2CO}-[dY]KGD[Pen]R-NH2; thioether N-5) | 150 | > 10000
11 | CC1(C)SCC(=O)N[C@H](Cc2ccc(O)cc2)C(=O)N[C@@H](CCCCN)C(=O)NCC(=O)N[C@@H](CC(=O)O)C(=O)N[C@@H]1C(=O)N[C@@H](CCCCN)C(N)=O [7/17, cyclo-S-acetyl-dTyr--Lys--Gly--Asp--Pen--Lys--NH2] ({CH2CO}-[dY]KGD[Pen]K-NH2; thioether N-5) | 238 | > 10000
12 | N=C(N)NCCC[C@@H]1NC(=O)[C@@H](Cc2ccc(O)cc2)NC(=O)CSC[C@@H](C(=O)N[C@@H](CCC(N)=O)C(N)=O)NC(=O)[C@H](CC(=O)O)NC(=O)CNC1=O [7/27, cyclo-S-acetyl-dTyr--Arg--Gly--Asp--Cys--Gln--NH2] ({CH2CO}-[dY]RGDCQ-NH2; thioether N-5) | 3.1 | –
13 | N=C(N)NCCC[C@@H]1NC(=O)[C@@H](Cc2ccc(O)cc2)NC(=O)CSC[C@@H](C(=O)NCCCCC(=O)O)NC(=O)[C@H](CC(=O)O)NC(=O)CNC1=O [7/28, cyclo-S-(1-5)-dTyr--Arg--Gly--Asp--Cys--X (X = aminovaleric acid)] ({CH2CO}-[dY]RGDC[Ava]-OH; thioether N-5) | 70 | –
14 | N=C(N)NCCC[C@@H]1NC(=O)[C@@H](Cc2ccc(O)cc2)NC(=O)CSC[C@@H](C(=O)O)NC(=O)[C@H](CC(=O)O)NC(=O)CNC1=O [7/46, cyclo-S-acetyl-dTyr--Arg--Gly--Asp--Cys--OH] ({CH2CO}-[dY]RGDC-OH; thioether N-5) | 3.2 | 3390
15 | N=C(N)NCCC[C@@H]1NC(=O)[C@@H](Cc2ccc(O)cc2)NC(=O)CSC[C@@H](C(=O)NCCCCN)NC(=O)[C@H](CC(=O)O)NC(=O)CNC1=O [8/12, cyclo-S-acetyl-dTyr--Arg--Gly--Asp--Cys--NH--X (X = butylamine)] ({CH2CO}-[dY]RGDC-{NH(CH2)4NH2}; thioether N-5) | 10 | –
